Measurements reported in patent US8710043B2, “TRPM8 antagonists and their use in treatments” (Amgen Inc., priority 2011, dated 2014).
Structures can show the parent of a compound that is named as a salt.

Biological target: T1, human TRPM8 (Homo sapiens, UniProt Q7Z2W7)
T1 construct: expressed in transfected cells; host or cells: Chinese hamster ovary (CHO) cells, T-REx tetracycline-inducible system, co-transfected with aequorin
Assay: Luminescence readout assay for measuring intracellular calcium, icilin activation
Format: cell-based
Settings: CHO cells expressing human TRPM8, aequorin luminescence, 1 μM icilin activation; read-out: hTRPM8 IC50
Outline: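 The read-out was luminescence reporting intracellular calcium, recorded by a CCD-based luminometer. Compounds were preincubated for 2.5 min before agonist challenge with 1 μM icilin. Human TRPM8 was expressed in a stable T-REx CHO line, induced with 0.5 μg/mL tetracycline the day before.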

T1 sequence (Q7Z2W7 whole entry): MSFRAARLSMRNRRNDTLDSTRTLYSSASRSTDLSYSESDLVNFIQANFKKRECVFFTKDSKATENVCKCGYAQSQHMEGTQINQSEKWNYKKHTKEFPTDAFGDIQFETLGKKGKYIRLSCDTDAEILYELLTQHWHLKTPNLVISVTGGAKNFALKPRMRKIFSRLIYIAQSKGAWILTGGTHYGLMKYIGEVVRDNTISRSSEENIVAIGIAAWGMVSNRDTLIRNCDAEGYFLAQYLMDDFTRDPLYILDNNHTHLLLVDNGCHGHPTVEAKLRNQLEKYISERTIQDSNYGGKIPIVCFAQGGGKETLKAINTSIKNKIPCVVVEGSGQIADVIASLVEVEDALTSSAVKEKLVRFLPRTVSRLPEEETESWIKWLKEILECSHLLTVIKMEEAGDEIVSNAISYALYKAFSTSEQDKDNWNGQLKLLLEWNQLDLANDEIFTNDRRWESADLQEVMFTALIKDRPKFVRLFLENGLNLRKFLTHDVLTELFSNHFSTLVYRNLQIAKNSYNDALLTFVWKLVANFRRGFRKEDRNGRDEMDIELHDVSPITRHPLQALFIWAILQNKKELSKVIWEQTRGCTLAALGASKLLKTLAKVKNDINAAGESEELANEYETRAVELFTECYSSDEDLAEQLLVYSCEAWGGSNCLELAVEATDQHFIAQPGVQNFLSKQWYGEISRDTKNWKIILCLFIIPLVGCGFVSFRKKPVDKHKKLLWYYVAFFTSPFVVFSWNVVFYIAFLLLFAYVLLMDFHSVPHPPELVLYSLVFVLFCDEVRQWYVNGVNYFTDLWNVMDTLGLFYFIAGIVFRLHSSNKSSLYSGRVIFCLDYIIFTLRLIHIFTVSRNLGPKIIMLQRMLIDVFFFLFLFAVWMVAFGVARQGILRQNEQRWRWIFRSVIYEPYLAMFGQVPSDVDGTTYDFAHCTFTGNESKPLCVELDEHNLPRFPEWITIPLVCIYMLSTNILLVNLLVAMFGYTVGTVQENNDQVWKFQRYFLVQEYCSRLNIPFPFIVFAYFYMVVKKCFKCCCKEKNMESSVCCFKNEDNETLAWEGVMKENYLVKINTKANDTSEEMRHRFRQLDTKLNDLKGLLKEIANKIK

| Compound | IC50 [nM] |
| --- | --- |
| O=C(NC(c1ccc(Cl)c(Cl)c1)c1ccccn1)c1ccc2cnccc2c1 (stereo not shown) [Example 247, N-((3,4-dichlorophenyl)(pyridin-2-yl)methyl)isoquinoline-6-carboxamide bis-hydrochloride] | 42.7 |
| Cc1ncc(C(=O)N[C@@H](c2ccc(C(F)(F)F)cc2)c2ncccc2C(F)(F)F)cn1 [Example 57, (S)-2-methyl-N-((4-(trifluoromethyl)phenyl)(3-(trifluoromethyl)pyridin-2-yl)methyl)pyrimidine-5-carboxamide] | 63.1 |
| O=C(N[C@@H](c1ccc(OC(F)(F)F)c(F)c1)c1ncccc1F)c1c[nH]c(=O)c(Cl)c1 [Example 401, (S)-5-chloro-N-((3-fluoro-4-(trifluoromethoxy)phenyl)(3-fluoropyridin-2-yl)methyl)-6-oxo-1,6-dihydropyridine-3-carboxamide] | 12.8 |
| O=C(N[C@@H](c1ccc(OC(F)(F)F)cc1)c1ncccc1F)c1ccn2nnnc2c1 [Example 310, (S)-N-((3-fluoropyridin-2-yl)(4-(trifluoromethoxy)phenyl)methyl)tetrazolo[1,5-a]pyridine-7-carboxamide] | 16 |
| CC1(C)C[C@H]1c1cccnc1[C@@H](NC(=O)c1ccc2cccnc2c1)c1ccc(C(F)(F)F)cc1 [Example 232, N-((S)-(3-((R)-2,2-dimethylcyclopropyl)pyridin-2-yl)(4-(trifluoromethyl)phenyl)methyl)quinoline-7-carboxamide] | 15.9 |
| O=C(N[C@@H](c1ccc(F)cc1)c1ncccc1C(F)(F)F)c1ccccc1 [Example 126, (S)-N-((4-fluorophenyl)(3-(trifluoromethyl)pyridin-2-yl)methyl)benzamide] | 194 |
| COc1ccc([C@H](NC(=O)c2ccc(=O)n(C)c2)c2ncccc2F)cc1F [Example 337, (S)-N-((3-fluoro-4-methoxyphenyl)(3-fluoropyridin-2-yl)methyl)-1-methyl-6-oxo-1,6-dihydropyridine-3-carboxamide] | 313 |
| CCc1cccnc1[C@@H](NC(=O)c1ccc(=O)[nH]c1)c1ccc(C(F)(F)F)cc1 [Example 430, (S)—N-((3-Ethylpyridin-2-yl)(4-(trifluoromethyl)phenyl)methyl)-6-oxo-1,6-dihydropyridine-3-carboxamide] | 12.4 |
| O=C(O)c1ccc(C(=O)N[C@@H](c2ccc(OC(F)(F)F)cc2)c2ncccc2F)nc1 [Example 272, (S)-6-(((3-Fluoropyridin-2-yl)(4-(trifluoromethoxy)phenyl)-methyl)carbamoyl)nicotinic Acid] | 11.9 |
| O=C(N[C@@H](c1ccc(C(F)(F)F)cc1)c1ncccc1C(F)(F)F)c1ccc2nccc(Cl)c2c1 [Example 116, (S)-4-chloro-N-((4-(trifluoromethyl)phenyl)(3-(trifluoromethyl)pyridin-2-yl)methyl)quinoline-6-carboxamide 2,2,2-trifluoroacetate] | 42.9 |
| COc1ccnc(C(=O)N[C@@H](c2ccc(C(F)(F)F)cc2)c2ncccc2C(F)(F)F)c1 [Example 32, (S)-4-methoxy-N-((4-(trifluoromethyl)phenyl)(3-(trifluoromethyl)pyridin-2-yl)methyl)picolinamide] | 143 |
| O=C(N[C@@H](c1ccc(C(F)(F)F)cc1)c1ncccc1C(F)(F)F)c1cccc(I)c1 [Example 117, (S)-3-iodo-N-((4-(trifluoromethyl)phenyl)(3-(trifluoromethyl)pyridin-2-yl)methyl)benzamide] | 70 |
| O=C(N[C@@H](c1ccc(C(F)(F)F)cc1)c1ncccc1F)c1ccccc1 [Example 180, (S)-N-((3-fluoropyridin-2-yl)(4-(trifluoromethyl)phenyl)methyl)benzamide] | 29.7 |
| Cc1ccnc(C(NC(=O)c2ccc(=O)[nH]c2)c2ccc(OC(F)(F)F)c(F)c2)c1 (stereo not shown) [Example 423, N-((3-fluoro-4-(trifluoromethoxy)phenyl)(4-methylpyridin-2-yl)methyl)-6-oxo-1,6-dihydropyridine-3-carboxamide] | 137 |
| Nc1n[nH]c(C(=O)N[C@@H](c2ccc(C(F)(F)F)cc2)c2ncccc2C(F)(F)F)n1 [Example 159, (S)-3-amino-N-((4-(trifluoromethyl)phenyl)(3-(trifluoromethyl)pyridin-2-yl)methyl)-1H-1,2,4-triazole-5-carboxamide] | 2210 |
| O=C(O)c1ccc(C(=O)N[C@@H](c2ccc(C(F)(F)F)cc2)c2ncccc2F)nc1 [Example 280, (S)-6-(((3-Fluoropyridin-2-yl)(4-(trifluoromethyl)phenyl)-methyl)carbamoyl)nicotinic Acid] | 22.1 |
| COc1ccc(C(=O)NC(c2ccc(C(F)(F)F)cc2)c2ncccc2F)cn1 (stereo not shown) [Example 35, N-((3-fluoropyridin-2-yl)(4-(trifluoromethyl)phenyl)methyl)-6-methoxynicotinamide] | 19.6 |

| Compound | IC50 [nM] |
| --- | --- |
| O=C(N[C@@H](c1ccc(C(F)(F)F)cc1)c1ccccn1)c1ccc2oc(=O)[nH]c2c1 [Example 361, (S)-2-oxo-N-(pyridin-2-yl(4-(trifluoromethyl)phenyl)methyl)-2,3-dihydrobenzo[d]oxazole-5-carboxamide] | 5.8 |
| CC#Cc1cccnc1[C@@H](NC(=O)c1ccc(OC)cc1)c1ccc(C(F)(F)F)cc1 [Example 95, (S)-4-methoxy-N-((3-(prop-1-yn-1-yl)pyridin-2-yl)(4-(trifluoromethyl)phenyl)methyl)benzamide 2,2,2-trifluoroacetate] | 57.2 |
| COC(C)(C)C(=O)N[C@@H](c1ccc(C(F)(F)F)cc1)c1ncccc1C(F)(F)F [Example 240, (S)-2-methoxy-2-methyl-N-((4-(trifluoromethyl)phenyl)(3-(trifluoromethyl)pyridin-2-yl)methyl)propanamide] | 81 |
| COc1ccc2cc([C@H](NC(=O)c3ccc4cccnc4c3)c3ncccc3C(F)(F)F)cnc2c1 [Example 8, (S)-N-((7-methoxyquinolin-3-yl)(3-(trifluoromethyl)pyridin-2-yl)methyl)quinoline-7-carboxamide] | 54.3 |
| CC(=O)Oc1ccc(C(=O)N[C@@H](c2ccc(C(F)(F)F)cc2)c2ncccc2F)cc1N [Example 431, (S)-2-Amino-4-(((3-fluoropyridin-2-yl)(4-(trifluoromethyl)phenyl)methyl)carbamoyl)phenyl Acetate] | 56.4 |
| O=C(N[C@@H](c1ccc(C(F)(F)F)cc1)c1ncccc1C(F)(F)F)C1CCOCC1 [Example 152, (S)-N-((4-(trifluoromethyl)phenyl)(3-(trifluoromethyl)pyridin-2-yl)methyl)tetrahydro-2H-pyran-4-carboxamide] | 459 |
| Nc1nc(C(=O)N[C@@H](c2ccc(C(F)(F)F)cc2)c2ncccc2C(F)(F)F)cs1 [Example 136, (S)-2-amino-N-((4-(trifluoromethyl)phenyl)(3-(trifluoromethyl)pyridin-2-yl)methyl)thiazole-4-carboxamide 2,2,2-trifluoroacetate] | 121 |
| O=C(O)Cn1cc(C(=O)N[C@@H](c2ccc(OC(F)(F)F)c(F)c2)c2ncccc2F)ccc1=O [Example 428, (S)-2-(5-(((3-Fluoro-4-(trifluoromethoxy)phenyl)(3-fluoropyridin-2-yl)methyl)carbamoyl)-2-oxopyridin-1(2H)-yl)acetic Acid] | 1290 |
| O=C(N[C@@H](c1ccc(OC(F)(F)F)c(F)c1)c1ccc(F)cn1)c1ccc(=O)[nH]c1 [Example 292, (S)-N-((3-fluoro-4-(trifluoromethoxy)phenyl)(5-fluoropyridin-2-yl)methyl)-6-oxo-1,6-dihydropyridine-3-carboxamide] | 52.4 |
| O=C(N[C@@H](c1ccc(C(F)(F)F)c(F)c1)c1ncccc1C(F)(F)F)c1cnccn1 [Example 111, (S)-N-((3-fluoro-4-(trifluoromethyl)phenyl)(3-(trifluoromethyl)pyridin-2-yl)methyl)pyrazine-2-carboxamide] | 55.9 |
| C=CCc1cccnc1[C@@H](NC(=O)[C@@H](C)c1ccccc1)c1ccc(C(F)(F)F)cc1 [Example 235, (S)-N-((S)-(3-allylpyridin-2-yl)(4-(trifluoromethyl)phenyl)methyl)-2-phenylpropanamide] | 226 |
| O=C(N[C@@H](c1ccc(OC(F)(F)F)c(F)c1)c1ncccc1F)c1ccc(=O)n(CC2(O)CC2)c1 [Example 407, (S)-N-((3-fluoro-4-(trifluoromethoxy)phenyl)(3-fluoropyridin-2-yl)methyl)-1-((1-hydroxycyclopropyl)methyl)-6-oxo-1,6-dihydropyridine-3-carboxamide] | 59.6 |
| COc1ccc([C@H](NC(=O)c2ccc(=O)[nH]c2)c2ncccc2F)cc1 [Example 342, (S)-N-((3-fluoropyridin-2-yl)(4-methoxyphenyl)methyl)-6-oxo-1,6-dihydropyridine-3-carboxamide] | 255 |
| COc1cccc(C(NC(=O)c2ccc(=O)[nH]c2)c2ccc(OC(F)(F)F)c(F)c2)n1 (stereo not shown) [Example 420, N-((3-fluoro-4-(trifluoromethoxy)phenyl)(6-methoxypyridin-2-yl)methyl)-6-oxo-1,6-dihydropyridine-3-carboxamide] | 118 |
| COc1ccc(C(NC(=O)c2ccc(=O)[nH]c2)c2ccc(OC(F)(F)F)c(F)c2)nc1 (stereo not shown) [Example 421] | 611 |
| Cn1cc(C(=O)N[C@@H](c2cc(F)cc(C(F)(F)F)c2)c2ncccc2F)ccc1=O [Example 328, (S)-N-((3-fluoro-5-(trifluoromethyl)phenyl)(3-fluoropyridin-2-yl)methyl)-1-methyl-6-oxo-1,6-dihydropyridine-3-carboxamide] | 1060 |
| O=C(N[C@@H](c1ccc(C(F)(F)F)c(F)c1)c1ncccc1C(F)(F)F)c1ccc2cccnc2n1 [Example 129, (S)-N-((3-fluoro-4-(trifluoromethyl)phenyl)(3-(trifluoromethyl)pyridin-2-yl)methyl)-1,8-naphthyridine-2-carboxamide 2,2,2-trifluoroacetate] | 114 |
